Here are results for 4 compounds from US9663527B2, “Factor XIa inhibitors” (Merck Sharp & Dohme Corp., priority 2014, dated 2017).

What is called Ki is a dissociation constant, usually derived from enzyme kinetics or from competition with a known ligand.

Where a name gives a salt, the structure may show the parent alone.

In the assay the target is purified human Factor XIa (Homo sapiens (Human), UniProt P03951). Description: Factor XIa Assay. The assay is classed as biochemical. The conditions noted are these: purified human Factor XIa 40 pM, substrate Z-Gly-Pro-Arg-AFC 100 μM, pH 7.4; read-out: hFactor XIa Ki. As to the method: The effectiveness of a compound of the present invention as an inhibitor of Coagulation Factor XIa can be determined using a relevant purified serine protease, and an appropriate synthetic substrate. The rate of hydrolysis of the chromogenic or fluorogenic substrate by the relevant serine protease was measured both in the absence and presence of compounds of the present invention. Assays were conducted at room temperature or at 37° C. […] A decrease in the rate of fluorescence change in the presence of inhibitor is indicative of enzyme inhibition. Such methods are known to one skilled in the art. The results of this assay are expressed as the inhibitory constant, Ki.
Sequence of purified human Factor XIa (P03951 388-625): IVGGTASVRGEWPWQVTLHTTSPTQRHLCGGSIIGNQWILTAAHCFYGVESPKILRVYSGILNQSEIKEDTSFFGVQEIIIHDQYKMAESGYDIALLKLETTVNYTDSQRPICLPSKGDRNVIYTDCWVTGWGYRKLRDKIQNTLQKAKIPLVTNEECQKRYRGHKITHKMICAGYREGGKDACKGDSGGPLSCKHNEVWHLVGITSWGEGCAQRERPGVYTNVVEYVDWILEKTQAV
Sequence of purified human Factor XIa (P03951 19-387 partner): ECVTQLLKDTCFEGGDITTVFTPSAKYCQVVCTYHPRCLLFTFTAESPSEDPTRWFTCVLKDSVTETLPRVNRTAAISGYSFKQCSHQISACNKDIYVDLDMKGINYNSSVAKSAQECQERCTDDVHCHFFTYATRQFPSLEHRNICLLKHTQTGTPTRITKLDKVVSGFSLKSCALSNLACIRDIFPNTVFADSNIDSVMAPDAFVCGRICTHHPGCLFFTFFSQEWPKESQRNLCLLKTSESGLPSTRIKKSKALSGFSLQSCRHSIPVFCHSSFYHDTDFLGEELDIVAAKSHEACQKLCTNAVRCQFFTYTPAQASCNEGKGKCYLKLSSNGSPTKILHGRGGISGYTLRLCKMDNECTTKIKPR
Factor XIa determinations were made in 50 mM HEPES buffer at pH 7.4 containing 150 mM NaCl, 5 mM CaCl2, and 0.1% PEG 8000 (polyethylene glycol; JT Baker or Fisher Scientific). Determinations were made using purified human Factor XIa at a final concentration of 40 pM (Sekisui Diagnostics) and the synthetic substrate, Z-Gly-Pro-Arg-AFC, TFA salt (Sigma #C0980) at a concentration of 100 μM.
Activity assays were performed by diluting a stock solution of substrate at least tenfold to a final concentration ≦0.1 Km into a solution containing enzyme or enzyme equilibrated with inhibitor. Times required to achieve equilibration between enzyme and inhibitor were determined in control experiments. Initial velocities of product formation in the absence (Vo) or presence of inhibitor (Vi) were measured. Assuming competitive inhibition, and that unity is negligible compared Km/[S], [I]/e, and [I]/e (where [S], [I], and e respectively represent the total concentrations, of substrate, inhibitor and enzyme), the equilibrium constant (Ki) for dissociation of the inhibitor from the enzyme can be obtained from the dependence of Vo/Vi on [I] shown in the following equation. Vo/Vi=1+[I]/Ki
On to `COC(=O)Nc1ccc2c(c1)NC(=O)CCCC[C@H](N1Cc3cc(CN)ccc3C1=O)c1nc-2c[nH]1` [Example 3, Methyl [(7S)-7-[5-(aminomethyl)-1-oxo-1,3-dihydro-2H-isoindol-2-yl]-2-oxo-1,2,3,4,5,6,7,9-octahydro-11,8-(azeno)-1,9-benzodiazacyclotridecin-14-yl]carbamate], for which the Ki was found to be 0.07 µM.

On to `COC(=O)Nc1ccc2c(c1)NC(=O)CCCC[C@H](N1CCc3cc(CN)ccc3C1=O)c1nc-2c[nH]1` [Example 1, Methyl [(7S)-7-[6-(aminomethyl)-1-oxo-3,4-dihydroisoquinolin-2(1H)-yl]-2-oxo-1,2,3,4,5,6,7,9-octahydro-11,8-(azeno)-1,9-benzodiazacyclotridecin-14-yl]carbamate], for which the inhibition constant (Ki) was determined as 0.0024 µM.

Regarding `COC(=O)Nc1ccc2c(c1)NC(=O)CCCC[C@H](N1CCCc3cc(CN)ccc3C1=O)c1nc-2c[nH]1` [Example 2, Methyl [(7S)-7-[7-(aminomethyl)-1-oxo-1,3,4,5-tetrahydro-2H-2-benzazepin-2-yl]-2-oxo-1,2,3,4,5,6,7,9-octahydro-11,8-(azeno)-1,9-benzodiazacyclotridecin-14-yl]carbamate trifluoroacetate], the inhibition constant (Ki) amounted to 0.0039 µM.

Regarding `NCc1ccc2c(c1)CCN([C@H]1CCCCC(=O)Nc3ccc(F)cc3-c3ccnc1c3)C2=O` [Example 4, 9-(6-(aminomethyl)-1-oxo-3,4-dihydroisoquinolin-2(1H)-yl)-2^5-fluoro-3-aza-1(4,2)-pyridina-2(1,2)-benzenacyclononaphan-4-one], the Ki was determined as 0.17 µM.
